Laboratory results taken from DBAASP.
In brackets after ≈: the same amount, converted by molar mass. Several values for one entry are separate records, joined by “and”; a condition that tells them apart may be missing. Equal values may be shown once. One block for each compound: values may come before it.

Legend:
Assay in all cases: ≥ marks a high value that may be exact or a test limit, other limits are often not marked, values filed in µg/mL are converted to µM
Candida albicans = test system: Candida albicans
[1] = test system: Pseudomonas aeruginosa ATCC 27853
[2] = test system: Staphylococcus aureus ATCC 49476
Staphylococcus aureus MR = test system: Staphylococcus aureus MR
[3] = test system: Acinetobacter baumannii ATCC 19606
[4] = test system: Candida albicans NCPF 1467
[5] = test system: Candida parapsilosis ATCC 22019
[6] = test system: Enterococcus faecalis ATCC 29212
[7] = test system: Escherichia coli ATCC 25922
Escherichia coli ML-35p = test system: Escherichia coli ML-35p
[8] = test system: Escherichia coli NCTC 10418
[9] = test system: Klebsiella pneumoniae ATCC 13883
Saccharomyces cerevisiae = test system: Saccharomyces cerevisiae
[10] = test system: Staphylococcus aureus ATCC 25923
[11] = test system: Staphylococcus aureus ATCC 43300
[12] = test system: Staphylococcus aureus ATCC BAA-44
[13] = test system: Staphylococcus aureus NCTC 10788
[14] = test system: Staphylococcus aureus ST1065
[15] = test system: Streptococcus pyogenes ATCC 19615
Bacillus cereus = test system: Bacillus cereus
Escherichia coli = test system: Escherichia coli
Leuconostoc lactis = test system: Leuconostoc lactis
Listeria innocua = test system: Listeria innocua
Micrococcus luteus = test system: Micrococcus luteus
Pasteurella multocida = test system: Pasteurella multocida
Staphylococcus aureus = test system: Staphylococcus aureus
[16] = test system: Staphylococcus epidermidis
Streptococcus uberis = test system: Streptococcus uberis
[17] = test system: Bacillus subtilis IFO 3513
[18] = test system: Escherichia coli IFO 12734
[19] = test system: Micrococcus luteus ATCC 9341
[20] = test system: Staphylococcus aureus IFO 12732
Klebsiella aerogenes = test system: Klebsiella aerogenes
[21] = test system: Pseudomonas aeruginosa PAO1

- MIC [17]: 4.05 µM (≈ 6.25 µg/mL)
- MIC [18]: 16.2 µM (≈ 25 µg/mL)
- MIC [19]: 25 µM (≈ 38.5 µg/mL)
- MIC [20]: 2.03 µM (≈ 3.13 µg/mL)
Compound: CC[C@H](C)[C@H](N)C(=O)N[C@@H](CC(C)C)C(=O)N1CCC[C@H]1C(=O)N[C@@H](CC(C)C)C(=O)N[C@@H](CCCCN)C(=O)N[C@@H](CC(C)C)C(=O)N1CCC[C@H]1C(=O)N[C@@H](CC(C)C)C(=O)N[C@@H](CC(C)C)C(=O)N1CCC[C@H]1C(=O)N[C@@H](CC(C)C)C(=O)N[C@@H](CCCN=C(N)N)C(=O)N[C@@H](CCCN=C(N)N)C(N)=O [ILPLKLPLLPLRR]

- MIC (Klebsiella aerogenes): 7.77 µM and 3.88 µM
- MIC [21]: 7.77 µM and 3.56 µM
Compound: CC(C)C[C@H](NC(=O)[C@H](CCCCN)NC(=O)[C@H](CCCCN)NC(=O)[C@H](Cc1ccccc1)NC(=O)[C@H](Cc1ccccc1)NC(=O)[C@H](CCCCN)NC(=O)[C@H](CCCCN)NC(=O)[C@H](Cc1ccccc1)NC(=O)[C@H](CCCN=C(N)N)NC(=O)[C@@H](N)CCCCN)C(=O)N[C@@H](CCCCN)C(=O)N[C@@H](CC(N)=O)C(=O)N[C@@H](CO)C(=O)N[C@H](C(=O)N[C@@H](CCCCN)C(=O)N[C@@H](CCCCN)C(=O)N[C@@H](CCCN=C(N)N)C(=O)N[C@@H](C)C(=O)N[C@@H](CCCCN)C(=O)N[C@@H](CCCCN)C(=O)N[C@@H](Cc1ccccc1)C(=O)N[C@@H](Cc1ccccc1)C(=O)N[C@@H](CCCCN)C(=O)N[C@@H](CCCCN)C(=O)O)C(C)C [KRFKKFFKKLKNSVKKRAKKFFKK]

- MIC [17]: 7.28 µM (≈ 12.5 µg/mL)
- MIC [18]: 29.1 µM (≈ 50 µg/mL)
- MIC [20]: 7.28 µM (≈ 12.5 µg/mL)
Compound: CC[C@H](C)[C@H](NC(=O)[C@H](CC(C)C)NC(=O)[C@@H]1CCCN1C(=O)[C@H](Cc1c[nH]c2ccccc12)NC(=O)[C@H](CCCCN)NC(=O)[C@H](CCCCN)NC(=O)[C@@H]1CCCN1C(=O)[C@H](CCCCN)NC(=O)[C@H](CC(C)C)NC(=O)[C@@H]1CCCN1C(=O)[C@H](Cc1c[nH]c2ccccc12)NC(=O)[C@H](CCCN=C(N)N)NC(=O)[C@@H](N)CCCN=C(N)N)C(N)=O [RRWPLKPKKWPLI]

Second part, the compound before the results:

Compound: CC[C@H](C)[C@H](NC(=O)[C@H](Cc1cnc[nH]1)NC(=O)[C@H](CCCCN)NC(=O)CNC(=O)[C@@H](NC(=O)[C@H](CO)NC(=O)[C@H](Cc1ccccc1)NC(=O)[C@H](CC(C)C)NC(=O)CNC(=O)CNC(=O)[C@@H](NC(=O)[C@@H](NC(=O)[C@H](Cc1cnc[nH]1)NC(=O)[C@H](Cc1cnc[nH]1)NC(=O)[C@@H](NC(=O)[C@@H](N)Cc1ccccc1)[C@@H](C)CC)[C@@H](C)CC)[C@@H](C)CC)C(C)C)C(=O)N[C@@H](Cc1cnc[nH]1)C(=O)N[C@@H](CO)C(=O)N[C@@H](CC(C)C)C(=O)N[C@H](C(=O)N[C@@H](Cc1cnc[nH]1)C(=O)N[C@@H](CCCN=C(N)N)C(=O)N[C@@H](CCCN=C(N)N)C(=O)N[C@@H](CCCN=C(N)N)C(=O)N[C@@H](CCCN=C(N)N)C(=O)O)[C@@H](C)CC [FIHHIIGGLFSVGKHIHSLIHRRRR]
- MIC (Candida albicans): 42.8 µM (≈ 128 µg/mL)
- MIC [1]: > 171 µM
- MIC [2]: 5.36 µM (≈ 16 µg/mL)
- MIC (Staphylococcus aureus MR): 5.36 µM (≈ 16 µg/mL)

Compound: CC[C@H](C)[C@H](NC(=O)[C@H](CO)NC(=O)[C@H](C)NC(=O)[C@@H](NC(=O)CNC(=O)[C@H](CO)NC(=O)[C@@H](NC(=O)[C@@H](NC(=O)[C@H](Cc1cnc[nH]1)NC(=O)[C@@H]1CCCN1C(=O)[C@@H](NC(=O)[C@H](CC(C)C)NC(=O)[C@H](CO)NC(=O)[C@H](CC(C)C)NC(=O)[C@@H](N)Cc1ccccc1)[C@@H](C)CC)[C@@H](C)CC)C(C)C)C(C)C)C(=O)N[C@@H](C)C(=O)N[C@@H](CCCCN)C(=O)N[C@@H](Cc1cnc[nH]1)C(=O)N[C@@H](Cc1ccccc1)C(N)=O [FLSLIPHIVSGVASIAKHF]
- MIC [3]: 6.25 µM (≈ 12.7 µg/mL)
- MIC [4]: ≥ 100 µM
- MIC [5]: ≥ 100 µM
- MIC [6]: 25 µM (≈ 50.9 µg/mL)
- MIC [7]: 70 µM (≈ 142 µg/mL)
- MIC (Escherichia coli ML-35p): ≥ 100 µM
- MIC [8]: ≥ 80 µM
- MIC [9]: ≥ 100 µM
- MIC [1]: > 100 µM
- MIC (Saccharomyces cerevisiae): 12.5 µM (≈ 25.4 µg/mL)
- MIC [10]: 6.25 µM (≈ 12.7 µg/mL)
- MIC [11]: 6.25 µM (≈ 12.7 µg/mL)
- MIC [12]: 6.25 µM (≈ 12.7 µg/mL)
- MIC [13]: 5 µM (≈ 10.2 µg/mL)
- MIC [14]: 6.25 µM (≈ 12.7 µg/mL)
- MIC [15]: 3.12 µM (≈ 6.35 µg/mL)

Compound: CC[C@H](C)[C@H](NC(=O)[C@H](C)NC(=O)[C@H](CC(C)C)NC(=O)[C@H](CO)NC(=O)[C@H](C)NC(=O)[C@@H](NC(=O)CNC(=O)[C@H](CO)NC(=O)[C@@H](NC(=O)[C@@H](NC(=O)[C@H](Cc1cnc[nH]1)NC(=O)[C@@H]1CCCN1C(=O)[C@@H](NC(=O)[C@H](CC(C)C)NC(=O)[C@H](CO)NC(=O)[C@H](CC(C)C)NC(=O)[C@@H](N)Cc1ccccc1)[C@@H](C)CC)[C@@H](C)CC)C(C)C)C(C)C)C(=O)N[C@@H](Cc1cnc[nH]1)C(=O)N[C@@H](Cc1ccccc1)C(N)=O [FLSLIPHIVSGVASLAIHF]
- MIC [3]: > 200 µM
- MIC [5]: ≥ 200 µM
- MIC [6]: > 200 µM
- MIC [7]: > 200 µM
- MIC (Escherichia coli ML-35p): ≥ 200 µM
- MIC [9]: ≥ 200 µM
- MIC [1]: > 200 µM
- MIC (Saccharomyces cerevisiae): ≥ 200 µM
- MIC [10]: > 200 µM
- MIC [11]: > 200 µM
- MIC [12]: ≥ 200 µM
- MIC [14]: ≥ 200 µM
- MIC [15]: 12.5 µM (≈ 25.3 µg/mL)

Compound: CC[C@H](C)[C@H](NC(=O)[C@H](CC(N)=O)NC(=O)[C@H](CCCCN)NC(=O)[C@@H](NC(=O)[C@@H](NC(=O)[C@H](CC(=O)O)NC(=O)[C@H](Cc1ccccc1)NC(=O)[C@H](CC(C)C)NC(=O)CN)[C@@H](C)CC)[C@@H](C)CC)C(=O)N[C@@H](Cc1ccccc1)C(=O)N[C@@H](CO)C(=O)NCC(=O)N[C@@H](CC(C)C)C(N)=O [GLFDIIKNIFSGL]
- MIC (Bacillus cereus): ≥ 69.6 µM
- MIC (Escherichia coli): > 69.6 µM
- MIC (Leuconostoc lactis): 17.4 µM (≈ 25 µg/mL)
- MIC (Listeria innocua): ≥ 69.6 µM
- MIC (Micrococcus luteus): ≥ 69.6 µM
- MIC (Pasteurella multocida): ≥ 69.6 µM
- MIC (Staphylococcus aureus): 69.6 µM (≈ 99.9 µg/mL)
- MIC [16]: ≥ 69.6 µM
- MIC (Streptococcus uberis): ≥ 69.6 µM

Compound: CC[C@H](C)[C@H](NC(=O)[C@H](CC(=O)O)NC(=O)[C@H](Cc1ccccc1)NC(=O)[C@H](CC(C)C)NC(=O)CN)C(=O)N[C@H](C(=O)N[C@@H](CCCCN)C(=O)N[C@@H](CCCCN)C(=O)N[C@H](C(=O)N[C@H](C(=O)NCC(=O)N[C@H](C(=O)N[C@H](C(=O)N[C@@H](C)C(=O)NCC(=O)N[C@@H](CC(C)C)C(N)=O)[C@@H](C)CC)[C@@H](C)O)C(C)C)C(C)C)C(C)C [GLFDIVKKVVGTIAGL]
- MIC (Bacillus cereus): 15.3 µM (≈ 25 µg/mL)
- MIC (Escherichia coli): > 61.4 µM
- MIC (Leuconostoc lactis): 7.36 µM (≈ 12 µg/mL)
- MIC (Listeria innocua): ≥ 61.4 µM
- MIC (Micrococcus luteus): 15.3 µM (≈ 25 µg/mL)
- MIC (Pasteurella multocida): ≥ 61.4 µM
- MIC (Staphylococcus aureus): 15.3 µM (≈ 25 µg/mL)
- MIC [16]: 15.3 µM (≈ 25 µg/mL)
- MIC (Streptococcus uberis): 15.3 µM (≈ 25 µg/mL)
